One may read the IC50 as the concentration that inhibits the measured activity by half.

Counter-ions that a name gives are not always drawn. Some results are limits rather than exact numbers.

One assay concerns the target T1, Human ATX protein (Homo sapiens, UniProt Q13822).
T1 construct: made in house
Put plainly: ATX biochemical assay (FRET, FS-3 substrate). The following applies: FRET assay, FS-3 2 μM, ATX 1.0 μg/mL, 30 minutes preincubation, 2 hours reaction at room temperature; read-out: IC50. In short, it runs like this:
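In-house human ATX (1.0 μg/mL final) was preincubated with compound for 30 min at room temperature in Tris buffer pH 7.4 with 1 mg/mL fatty acid free-BSA. FS-3 substrate (2 μM final) was then hydrolysed for 2 hours at room temperature, protected from light, and read as fluorescence at ex 485/em 538 nm.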
Consider `O=C(Cc1ccccc1)N1CCc2c(C(F)(F)F)nn(Cc3ccc(Cl)cc3F)c2C1` [Example 1-3, 1-(1-(4-Chloro-2-fluorobenzyl)-3-(trifluoromethyl)-4,5-dihydro-1H-pyrazolo[3,4-c]pyridin-6(7H)-yl)-2-phenylethanone], for which the IC50 is at most 100 nM.

As to `CCOC(=O)[C@H]1CC[C@H](CC(=O)N2CCc3c(C(F)(F)F)nn(Cc4cc(F)cc(Cl)c4)c3C2)CC1` [Example 2-3, trans-Ethyl 4-(2-(1-(3-chloro-5-fluorobenzyl)-3-(trifluoromethyl)-4,5-dihydro-1H-pyrazolo[3,4-c]pyridin-6(7H)-yl)-2-oxoethyl)cyclohexanecarboxylate], the concentration for half-maximal inhibition (IC50) was at most 100 nM.

Turning to `Cc1ccc(Cn2nc(C(F)(F)F)c3c2CN(C(=O)C[C@H]2CC[C@H](C(=O)O)CC2)CC3)cc1` [Example 5-14, trans-4-(2-(1-(4-Methylbenzyl)-3-(trifluoromethyl)-4,5-dihydro-1H-pyrazolo[3,4-c]pyridin-6(7H)-yl)-2-oxoethyl)cyclohexanecarboxylic acid], the concentration for half-maximal inhibition (IC50) is at most 100 nM.

As for `O=C(O)C1CC2CN(CC(=O)N3CCc4c(C(F)(F)F)nn(Cc5ccc(Cl)cc5F)c4C3)CC2C1` (stereo not drawn) [Example 13-9, 2-(2-(1-(4-Chloro-2-fluorobenzyl)-3-(trifluoromethyl)-4,5-dihydro-1H-pyrazolo[3,4-c]pyridin-6(7H)-yl)-2-oxoethyl)octahydrocyclopenta[c]pyrrole-5-carboxylic acid TFA salt], the IC50 was at most 100 nM.

On to `O=C(O)CCNCC(=O)N1CCc2c(C(F)(F)F)nn(Cc3ccc(F)cc3)c2C1` [Example 13-16, 3-(2-(1-(4-Fluorobenzyl)-3-(trifluoromethyl)-4,5-dihydro-1H-pyrazolo[3,4-c]pyridin-6(7H)-yl)-2-oxoethylamino)propanoic acid TFA salt], for which the concentration for half-maximal inhibition (IC50) was at most 100 nM.

`CC(C(=O)N1CCc2c(C(F)(F)F)nn(Cc3ccc(Cl)cc3F)c2C1)C1CCC(C(=O)O)CC1` (stereo not drawn) [Example 6-4, 4-(1-(1-(4-Chloro-2-fluorobenzyl)-3-(trifluoromethyl)-4,5-dihydro-1H-pyrazolo[3,4-c]pyridin-6(7H)-yl)-1-oxopropan-2-yl)cyclohexanecarboxylic acid]: the 50% inhibitory concentration (IC50) is at most 100 nM.

On to `CC(C)N1CCC(CC(=O)N2CCc3c(C(F)(F)F)nn(Cc4ccc(Cl)cc4F)c3C2)CC1` [Example 11-2, 1-(1-(4-Chloro-2-fluorobenzyl)-3-(trifluoromethyl)-4,5-dihydro-1H-pyrazolo[3,4-c]pyridin-6(7H)-yl)-2-(1-isopropylpiperidin-4-yl)ethanone HCl salt], for which the concentration for half-maximal inhibition (IC50) is at most 100 nM.

Regarding `O=C(C[C@H]1CC[C@H](C(=O)O)CC1)N1CCc2c(C(F)(F)F)nn(CCC3CCCCC3)c2C1` [Example 7-22, trans-4-(2-(1-(2-cyclohexylethyl)-3-(trifluoromethyl)-4,5-dihydro-1H-pyrazolo[3,4-c]pyridin-6(7H)-yl)-2-oxoethyl)cyclohexanecarboxylic acid], the half-inhibitory concentration (IC50) is at most 100 nM.

Consider `O=C(O)CN1CCC(CC(=O)N2CCc3c(C(F)(F)F)nn(Cc4ccc(Cl)cc4F)c3C2)CC1` [Example 15-1, 2-(4-(2-(1-(4-Chloro-2-fluorobenzyl)-3-(trifluoromethyl)-4,5-dihydro-1H-pyrazolo[3,4-c]pyridin-6(7H)-yl)-2-oxoethyl)piperidin-1-yl)acetic acid], for which the IC50 is at most 100 nM.

`O=C(C1CN2CCC1CC2)N1CCc2c(C(F)(F)F)nn(Cc3ccc(F)cc3)c2C1` (stereo not drawn) [Example 1-35, (1-(4-Fluorobenzyl)-3-(trifluoromethyl)-4,5-dihydro-1H-pyrazolo[3,4-c]pyridin-6(7H)-yl)(quinuclidin-3-yl)methanone TFA salt]: the IC50 was in the range of 100 to 250 nM.

As to `O=C(O)C1CN(CC(=O)N2CCc3c(C(F)(F)F)nn(Cc4ccc(F)cc4)c3C2)C1` [Example 13-18, 1-(2-(1-(4-Fluorobenzyl)-3-(trifluoromethyl)-4,5-dihydro-1H-pyrazolo[3,4-c]pyridin-6(7H)-yl)-2-oxoethyl)azetidine-3-carboxylic acid TFA salt], the half-inhibitory concentration (IC50) was at most 100 nM.

As for `O=C(O)CC1CCN(CC(=O)N2CCc3c(C(F)(F)F)nn(Cc4ccc(Cl)cc4F)c3C2)CC1` [Example 13-13, 2-(1-(2-(1-(4-Chloro-2-fluorobenzyl)-3-(trifluoromethyl)-4,5-dihydro-1H-pyrazolo[3,4-c]pyridin-6(7H)-yl)-2-oxoethyl)piperidin-4-yl)acetic acid TFA salt], the IC50 is at most 100 nM.

Turning to `O=C(CC1CCOCC1)N1CCc2c(C(F)(F)F)nn(Cc3ccc(F)cc3)c2C1` [Example 1-30, 1-(1-(4-Fluorobenzyl)-3-(trifluoromethyl)-4,5-dihydro-1H-pyrazolo[3,4-c]pyridin-6(7H)-yl)-2-(tetrahydro-2H-pyran-4-yl)ethanone], the half-maximal inhibitory concentration (IC50) was at most 100 nM.

With `O=C(CN1CCC(C(F)(F)F)CC1)N1CCc2c(C(F)(F)F)nn(Cc3ccc(Cl)cc3F)c2C1` [Example 12-8, 1-(1-(4-Chloro-2-fluorobenzyl)-3-(trifluoromethyl)-4,5-dihydro-1H-pyrazolo[3,4-c]pyridin-6(7H)-yl)-2-(4-(trifluoromethyl)piperidin-1-yl)ethanone], the IC50 was at most 100 nM.

On to `CC1(C)C(NCC(=O)N2CCc3c(C(F)(F)F)nn(Cc4ccc(Cl)cc4F)c3C2)CC1C(=O)O` (stereo not drawn) [Example 13-11, 3-((2-(1-(4-Chloro-2-fluorobenzyl)-3-(trifluoromethyl)-4,5-dihydro-1H-pyrazolo[3,4-c]pyridin-6(7H)-yl)-2-oxoethyl)amino)-2,2-dimethylcyclobutanecarboxylic acid TFA salt], for which the concentration for half-maximal inhibition (IC50) was at most 100 nM.

As to `CC1CCN(CC(=O)N2CCc3c(C(F)(F)F)nn(Cc4ccc(Cl)cc4F)c3C2)CC1` [Example 12-13, 1-(1-(4-Chloro-2-fluorobenzyl)-3-(trifluoromethyl)-4,5-dihydro-1H-pyrazolo[3,4-c]pyridin-6(7H)-yl)-2-(4-methylpiperidin-1-yl)ethanone], the IC50 is at most 100 nM.

On to `O=C(O)C1CC2(CC(CC(=O)N3CCc4c(C(F)(F)F)nn(Cc5ccc(Cl)cc5F)c4C3)C2)C1` (stereo not drawn) [Example 6-12, 6-(2-(1-(4-Chloro-2-fluorobenzyl)-3-(trifluoromethyl)-4,5-dihydro-1H-pyrazolo[3,4-c]pyridin-6(7H)-yl)-2-oxoethyl)spiro[3.3]heptane-2-carboxylic acid], for which the IC50 was at most 100 nM.

For the compound `O=C(CC1CCN(c2ccncn2)CC1)N1CCc2c(C(F)(F)F)nn(Cc3ccc(F)cc3)c2C1` [Example 18-3, 1-(1-(4-Fluorobenzyl)-3-(trifluoromethyl)-4,5-dihydro-1H-pyrazolo[3,4-c]pyridin-6(7H)-yl)-2-(1-(pyrimidin-4-yl)piperidin-4-yl)ethanone TFA salt], the IC50 is at most 100 nM.

Take `CCOC(=O)[C@H]1CC[C@H](CC(=O)N2CCc3c(C(F)(F)F)nn(Cc4ccc(C)cc4)c3C2)CC1` [Example 1-25, trans-Ethyl 4-(2-(1-(4-methylbenzyl)-3-(trifluoromethyl)-4,5-dihydro-1H-pyrazolo[3,4-c]pyridin-6(7H)-yl)-2-oxoethyl)cyclohexanecarboxylate]: the IC50 was at most 100 nM.

`N[C@H]1CC[C@H](CC(=O)N2CCc3c(C(F)(F)F)nn(Cc4ccc(Cl)cc4F)c3C2)CC1` [Example 9-19, 2-(trans-4-aminocyclohexyl)-1-(1-(4-chloro-2-fluorobenzyl)-3-(trifluoromethyl)-4,5-dihydro-1H-pyrazolo[3,4-c]pyridin-6(7H)-yl)ethanone TFA salt]: the IC50 was at most 100 nM.

Turning to `CN(C(=O)N1CCc2c(C(F)(F)F)nn(Cc3ccc(Cl)cc3F)c2C1)[C@H]1CC[C@@H](C(=O)O)CC1` [Example 5-9, cis-4-(1-(4-Chloro-2-fluorobenzyl)-N-methyl-3-(trifluoromethyl)-4,5,6,7-tetrahydro-1H-pyrazolo[3,4-c]pyridine-6-carboxamido)cyclohexanecarboxylic acid], the IC50 is at most 100 nM.

On to `O=C(CC1CNC1)N1CCc2c(C(F)(F)F)nn(Cc3ccc(Cl)cc3F)c2C1` [Example 9-3, 2-(Azetidin-3-yl)-1-(1-(4-chloro-2-fluorobenzyl)-3-(trifluoromethyl)-4,5-dihydro-1H-pyrazolo[3,4-c]pyridin-6(7H)-yl)ethanone TFA salt], for which the IC50 is at most 100 nM.

`O=C(CC1CC(N2CCCC2)C1)N1CCc2c(C(F)(F)F)nn(Cc3ccc(F)cc3)c2C1` (stereo not drawn) [Example 22-3, 1-(1-(4-Fluorobenzyl)-3-(trifluoromethyl)-4,5-dihydro-1H-pyrazolo[3,4-c]pyridin-6(7H)-yl)-2-(3-(pyrrolidin-1-yl)cyclobutyl)ethanone TFA salt]: the IC50 is at most 100 nM.

In the case of `O=C(CC1CCC(O)CC1)N1CCc2c(C(F)(F)F)nn(Cc3ccc(Cl)cc3F)c2C1` (stereo not drawn) [Example 1-15, 1-(1-(4-Chloro-2-fluorobenzyl)-3-(trifluoromethyl)-4,5-dihydro-1H-pyrazolo[3,4-c]pyridin-6(7H)-yl)-2-(4-hydroxycyclohexyl)ethanone], the IC50 was at most 100 nM.

Take `O=C(O)[C@H]1CC[C@@H](C(=O)N2CCc3c(C(F)(F)F)nn(Cc4ccc(F)cc4)c3C2)CC1` [Example 7-18, cis-4-(1-(4-fluorobenzyl)-3-(trifluoromethyl)-4,5,6,7-tetrahydro-1H-pyrazolo[3,4-c]pyridine-6-carbonyl)cyclohexanecarboxylic acid]: the half-maximal inhibitory concentration (IC50) was at most 100 nM.

As to `CN1CCCC(CC(=O)N2CCc3c(C(F)(F)F)nn(Cc4ccc(F)cc4)c3C2)C1` (stereo not drawn) [Example 11-1, 1-(1-(4-Fluorobenzyl)-3-(trifluoromethyl)-4,5-dihydro-1H-pyrazolo[3,4-c]pyridin-6(7H)-yl)-2-(1-methylpiperidin-3-yl)ethanone formate], the half-maximal inhibitory concentration (IC50) is at most 100 nM.

The same assay, now with this note: IC50, FRET assay, FS-3 2 μM, ATX 1.0 μg/mL, 30 minutes preincubation, 2 hours reaction at room temperature.
On to `O=C(CC1CN2CCC1CC2)N1CCc2c(C(F)(F)F)nn(Cc3ccc(F)cc3)c2C1` (stereo not drawn) [Example 1-37, 1-(1-(4-Fluorobenzyl)-3-(trifluoromethyl)-4,5-dihydro-1H-pyrazolo[3,4-c]pyridin-6(7H)-yl)-2-(quinuclidin-3-yl)ethanone TFA salt], for which the half-maximal inhibitory concentration (IC50) is at most 100 nM.

The values are drawn from patent publication US10144732B2 (BIOGEN MA INC., priority 2014, dated 2018).
